The text below walks through data of patent US20110098257A1, “DERIVATIVES OF 4- OR 5-AMINOSALICYLIC ACID” (ANTIBE THERAPEUTICS INC., priority 2005, published 2011).

In assay [1] the test system is visceral pain in response to colorectal distension. The assay is described as follows: Rat model of visceral pain perception (colorectal distension, AWR score). The format is in vivo, Rats (male, Wistar). Here is the method: A rat model of visceral pain perception, a pre-clinical model of irritable bowel syndrome, was used in the following example. Rats (male, Wistar, 200-250 g, obtained from Charles River, Monza, Italy), were housed in plastic cages and maintained under controlled conditions with 12-hours light/dark cycle with lights on at 7.00 AM. Tap water and standard laboratory chow were freely available. Before experiments, rats were individually trained by spending 2-3 hours per day in a plexiglass cage for 2-3 days. It allowed them to adjust to a movement-restriction environment. Food was withheld for 12 hours before colorectal distension (CRD) recording were performed. Experiments were performed in awake rats and were conducted in a blind manner in that the observer was not aware of the identity of drug administered to each animal.
In the testing day, rats were sedated with ether inhalation and a 2 cm long latex balloon was inserted intrarectally 2 cm from the anal verge and fixed at the base of the tail. The balloon was connected via a double-barreled cannula to a pressure transducer to continuously monitoring the rectal pressure by a computer (PowerLab PC, A.D. Instruments, Milford, Mass., USA) and to a syringe for inflation/deflation of the balloon. The rats were then housed in a small cage (20×8×8 cm) on an elevated Plexiglas™ platform and allowed to wake up and adapt for 1 hour. After recovery from sedation, animals underwent the CRD procedure and behavioral responses were tested. The night before the experiments, the balloons were inflated and left overnight so the latex stretched and the balloons became compliant.
CRD of 20 seconds, performed every 5 minutes, was applied in increment of 0.4 ml starting from 0.4 ml up to 1.6 ml water. To achieve an accurate measurement of the colonic parameters and perception, the distensions were repeated twice for each intensity and data for each animal were averaged for analysis. Each animal underwent a double set of CRD. Twenty minutes after the first sequence of CRD (0.4 mL-1.6 ml water), drugs were administered intraperitoneally (i.p.) and a second set of CRD was performed. Behavioral responses during the first and the second set of CRD were assessed and compared.
Behavioral response to CRD was assessed by measuring the abdominal withdrawal reflex (AWR) using a semiquantitative score (1).
The effects of mesalamine and Compound XXXV on colonic compliance and sensitivity were determined using a total of 8 fasting rats. To investigate whether the administration of mesalamine and Compound XXXV could revert pain induced by CRD, after the first sequence of CRD, […], after which a second set of CRD was repeated.
To determine the effect of mesalamine or Compound XXXV on colonic smooth muscle, the compliance of the colo-rectum during CRD was obtained from intracolo-rectal volume and pressure and expressed as mL/mmHg.
All data are presented as the mean±SEM, with sample sizes of 4 rats/group; statistical comparison of paired data was performed by the Wilcoxon signed rank test. An associated probability (p value) of less that 5% was considered significant.
A rat model of visceral pain perception as described above was used to compare pain perception scores for both Compound XXXV and Compound XXVII with or without glibenclamide, an inhibitor of ATP-sensitive K^+ (KATP) channels.

Assay [2] relates to leukocyte adherence in mesenteric post-capillary venules. Briefly: Leukocyte adherence to the vascular endothelium in vivo (intravital microscopy, aspirin-induced). More on the design: species or system Rats. As for the experimental part:
Leukocyte adherence was studied using intravital microscopy, as described in detail previously (Wallace et al., (1993) Am. J. Physiol. 265: 993-998, incorporated hereto by reference). Rats were anesthetized with pentobarbital sodium (60 mg/kg i.p.) and cautery incisions were made along the abdominal region. A tracheotomy was performed to facilitate breathing. The rats were placed in a supine position, and a segment of the mesentery was exteriorized through the abdominal incision. The mesentery was carefully placed over an optically clear viewing pedestal that allowed for trans-illumination of a 2-cm^2 segment of tissue. All exposed tissue was covered with saline-soaked gauze to minimize dehydration. The temperature of the pedestal was kept at 37° C. and the mesentery was superfused with warmed bicarbonate-buffered saline (pH 7.4). An intravital microscope (Nikon L25/0.35) and a ×10 eyepiece were used to observe the mesenteric microcirculation. Post-capillary venules with diameters ranging from 20 to 40 μm were selected for the study. A video camera mounted on the microscope (Panasonic™ digital 5000) projected the image onto a monitor, and the images were recorded for playback analysis using a videocassette recorder. Images of the mesenteric microcirculation were recorded 5 minutes prior to aspirin administration (baseline), at the time of aspirin administration (time 0-5) and every 15 minutes for 60 minutes. Leukocyte adherence was blindly quantified from videotaped images of the vessels made over 5-min periods as the number of leukocytes that remained stationary along the vessel wall for 30 s or more (expressed per 100 μm venule length). Groups of rats (at least 5 in each) were pretreated with Compound XXXV (130 mg/kg), Compound XXVII (100 mg/kg), mesalamine (50 mg/kg), or vehicle 60 min prior to aspirin (or vehicle) administration. These drugs were given intragastrically. In some experiments, rats were treated with glibenclamide (10 mg/kg i.p.) or vehicle 30 min prior to administration of these compounds.

The subject of the next assay is COX-2 mRNA. The assay is described as follows: Colonic mRNA expression by RT-PCR in TNBS-induced colitis. In kind it is in vivo, mice. As to conditions: dose equimolar to mesalamine 50 mg/kg; FIG. 13. As for the experimental part: (§1) The same model was used as described above. In this example, the effects of mesalamine (50 mg/kg) were compared to those of equimolar doses of Compound XXXV. In addition to measuring the severity of colitis by measuring disease activity score and MPO activity, tissues were processed for measurement of a number of genes for inflammatory cytokines and other mediators.
(§2) In particular, mRNA expression in mice of tumour necrosis factor-alpha (TNF-α), interferon gamma (IFN-[…]γ), colonic interleukin (IL)-1, IL-2, IL-10, IL-12 p40, RANTES, cyclooxygenase (COX)-1, COX-2, constitutive endothelial nitric oxide synthase (eNOS), and inducible NOS (iNOS) was measured as described in Wallace et al. (1999) Gastroenterology 117: 557-566, incorporated herein by reference.
(§3) Briefly, reverse transcription-polymerase chain reaction (RT-PCR) was used to detect and quantify mRNA of the particular cytokine/chemokine/enzyme. Glyceraldehyde-3-phosphate dehydrogenase (GAPDH) was used as the “housekeeping gene” for mRNA expression (i.e., as an internal control). For each sample, the ratio of the amplification of the target gene to the amplification of GAPDH (expression of each is measured by performing densitometry on gels) was obtained. Comparisons were then made between the relative amplification (expression) of the target gene in tissues for the treatment groups in comparison to the expression in tissues from healthy controls. Thus, the data shown in FIGS. 7-14 represent the relative expression of the target gene (normalized to GAPDH expression) as a ratio to the expression in healthy controls.

The subject of a further assay is IL-10 mRNA. The description is as above. In kind it is in vivo, mice. As to conditions: dose equimolar to mesalamine 50 mg/kg; normalized to GAPDH, ratio to healthy controls. Here is the method: as §1, §2, §3

With `Nc1ccc(O)c(C(=O)Oc2ccc(-c3cc(=S)ss3)cc2)c1` [Compound XXXV, 5-Amino-2-hydroxy-benzoic acid 4-(5-thioxo-5H-[1,2]dithiol-3-yl)-phenyl ester], in assay [1] (100 mg/kg i.p., FIG. 16(b)), the intrarectal pressure result is recorded as “successfully reduced intrarectal pressure”. Besides, the “perception score (visceral pain in response to colorectal distension)” value in assay [1] (100 mg/kg i.p., second set of CRD vs first, FIG. 15) was “more effective than mesalamine (and vehicle) in reducing visceral pain”. Also, the “pain perception score after glibenclamide pretreatment” value in assay [1] (0.8 mL colorectal distention, 100 mg/kg, glibenclamide 10 mg/kg i.p. 30 min before, FIG. 17) is reported as “reversed by pretreatment with glibenclamide”. The pain perception score entry in assay [1] (0.8 mL colorectal distention, 100 mg/kg, vs vehicle-treated group, FIG. 17) is recorded as “significantly reduced the pain perception”. The pain perception entry in assay [1] (equimolar doses: mesalamine 50, Compound XXXV 130, ADT-OH 80, Compound XXVII 100, 4-HTB 50 mg/kg, vs vehicle-treated group) was “significantly reduced pain perception”. Besides, in assay [2] (glibenclamide 10 mg/kg i.p. 30 min prior to the compound, compound plus aspirin, FIG. 19), the “aspirin-induced leukocyte adherence with glibenclamide pretreatment” value is “glibenclamide reversed the inhibitory effect”. In addition, the “aspirin-induced leukocyte adherence, final time period” value in assay [2] (minutes 60-65, Compound XXXV 130 mg/kg, Compound XXVII 100 mg/kg, FIG. 20) is reported as “suppress aspirin-induced leukocyte adherence”. For the same compound, in assay [2] (minutes 60-65, glibenclamide 10 mg/kg i.p., FIG. 20), the “aspirin-induced leukocyte adherence, final time period, with glibenclamide pretreatment” value is on record as “glibenclamide pretreatment to reverse this inhibitor effect”. For the same compound, the “aspirin-induced increase in leukocyte adherence” value in assay [2] (pretreatment: Compound XXXV 130 mg/kg or mesalamine 50 mg/kg intragastrically 60 min prior to aspirin, glibenclamide 10 mg/kg i.p., FIG. 19) is given as “prevented the aspirin-induced increase in leukocyte adherence”. Also, the “COX-2 mRNA expression” value with COX-2 mRNA is recorded as “suppressed”. The “expression of IL-10 mRNA” value in the assay on IL-10 mRNA was “did not suppress expression of IL-10 mRNA”.
